Tested on: 156681-154-R-J1-PDC complex spheroid viability
Experiment: Anticancer human tumor 156681-154-R-J1-PDC patient-derived melanoma cell line growth inhibition [CLK]
Conditions: for IC50: curve of first compound; for viability, T/C: stronger effect = lower value
Summary of the method: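 Patient-derived tumor cells grown as complex spheroids with HUVEC endothelial cells and mesenchymal stem cells, treated with drug combinations. Concentrations descend in half-log steps from near clinical Cmax, or from 10 microM if Cmax unknown.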

[1] = second compound 0.0316 µM, first compound 0.0316 µM
[2] = second compound 0.0316 µM, first compound 0.1 µM
[3] = second compound 0.1 µM, first compound 0.0316 µM
[4] = second compound 0.1 µM, first compound 0.1 µM
[5] = second compound 0.316 µM, first compound 0.0316 µM
[6] = second compound 0.316 µM, first compound 0.1 µM
[7] = second compound 1 µM, first compound 0.0316 µM
[8] = second compound 1 µM, first compound 0.1 µM
[9] = second compound 3.16 µM, first compound 0.0316 µM
[10] = second compound 3.16 µM, first compound 0.1 µM
[11] = second compound 10 µM, first compound 0.0316 µM
[12] = second compound 10 µM, first compound 0.1 µM
[13] = second compound 0.0316 µM, first compound 0.316 µM
[14] = second compound 0.0316 µM, first compound 1 µM
[15] = second compound 0.0316 µM, first compound 3.16 µM
[16] = second compound 0.0316 µM, first compound 10 µM
[17] = second compound 0.1 µM, first compound 0.316 µM
[18] = second compound 0.1 µM, first compound 1 µM
[19] = second compound 0.1 µM, first compound 3.16 µM
[20] = second compound 0.1 µM, first compound 10 µM
[21] = second compound 0.316 µM, first compound 0.316 µM
[22] = second compound 0.316 µM, first compound 1 µM
[23] = second compound 0.316 µM, first compound 3.16 µM
[24] = second compound 0.316 µM, first compound 10 µM
[25] = second compound 1 µM, first compound 0.316 µM
[26] = second compound 1 µM, first compound 1 µM
[27] = second compound 1 µM, first compound 3.16 µM
[28] = second compound 1 µM, first compound 10 µM
[29] = second compound 3.16 µM, first compound 0.316 µM
[30] = second compound 3.16 µM, first compound 1 µM
[31] = second compound 3.16 µM, first compound 3.16 µM
[32] = second compound 3.16 µM, first compound 10 µM
[33] = second compound 10 µM, first compound 0.316 µM
[34] = second compound 10 µM, first compound 1 µM
[35] = second compound 10 µM, first compound 3.16 µM
[36] = second compound 10 µM, first compound 10 µM
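Also: spheroids exposed to the agents for seven days.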
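For viability, T/C in this document: 100% = DMSO vehicle control viability.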

Cn1ncnc1[C@H]1c2n[nH]c(=O)c3cc(F)cc(c23)N[C@@H]1c1ccc(F)cc1 + CNC(=O)c1ccc(Nc2nc(OC3CCCC3)c3c(-c4ccc5nc(C)oc5c4)c[nH]c3n2)c(OC)c1
IC50 (second compound 0.0316 µM): > 100 nM
IC50 (second compound 0.1 µM): > 100 nM
IC50 (second compound 0.316 µM): > 100 nM
IC50 (second compound 1 µM): 0.316 nM
IC50 (second compound 3.16 µM): < 0.316 nM
IC50 (second compound 10 µM): < 0.316 nM
viability, T/C (second compound 0.0316 µM, first compound 0.000316 µM): 91.5%
viability, T/C (second compound 0.0316 µM, first compound 0.001 µM): 87.8%
viability, T/C (second compound 0.0316 µM, first compound 0.00316 µM): 74.9%
viability, T/C (second compound 0.0316 µM, first compound 0.01 µM): 84.6%
viability, T/C [1]: 83.2%
viability, T/C [2]: 64.1%
viability, T/C (second compound 0.1 µM, first compound 0.000316 µM): 56.9%
viability, T/C (second compound 0.1 µM, first compound 0.001 µM): 68.6%
viability, T/C (second compound 0.1 µM, first compound 0.00316 µM): 75.9%
viability, T/C (second compound 0.1 µM, first compound 0.01 µM): 66.6%
viability, T/C [3]: 62.3%
viability, T/C [4]: 53.5%
viability, T/C (second compound 0.316 µM, first compound 0.000316 µM): 67%
viability, T/C (second compound 0.316 µM, first compound 0.001 µM): 68.4%
viability, T/C (second compound 0.316 µM, first compound 0.00316 µM): 55.4%
viability, T/C (second compound 0.316 µM, first compound 0.01 µM): 58.4%
viability, T/C [5]: 60%
viability, T/C [6]: 51.9%
viability, T/C (second compound 1 µM, first compound 0.000316 µM): 51.8%
viability, T/C (second compound 1 µM, first compound 0.001 µM): 51.1%
viability, T/C (second compound 1 µM, first compound 0.00316 µM): 39.8%
viability, T/C (second compound 1 µM, first compound 0.01 µM): 44.3%
viability, T/C [7]: 53.6%
viability, T/C [8]: 29.3%
viability, T/C (second compound 3.16 µM, first compound 0.000316 µM): 55.1%
viability, T/C (second compound 3.16 µM, first compound 0.001 µM): 41.5%
viability, T/C (second compound 3.16 µM, first compound 0.00316 µM): 43.6%
viability, T/C (second compound 3.16 µM, first compound 0.01 µM): 49.5%
viability, T/C [9]: 39.5%
viability, T/C [10]: 33.1%
viability, T/C (second compound 10 µM, first compound 0.000316 µM): 49.3%
viability, T/C (second compound 10 µM, first compound 0.001 µM): 43.9%
viability, T/C (second compound 10 µM, first compound 0.00316 µM): 33.6%
viability, T/C (second compound 10 µM, first compound 0.01 µM): 32.5%
viability, T/C [11]: 38.6%
viability, T/C [12]: 25.4%

CC1COCCN1c1cc(C2(S(C)(=N)=O)CC2)nc(-c2ccnc3[nH]ccc23)n1 (stereo unspecified) + CNC(=O)c1ccc(Nc2nc(OC3CCCC3)c3c(-c4ccc5nc(C)oc5c4)c[nH]c3n2)c(OC)c1
IC50 (second compound 0.0316 µM): 1420 nM
IC50 (second compound 0.1 µM): 846 nM
IC50 (second compound 0.316 µM): 757 nM
IC50 (second compound 1 µM): 600 nM
IC50 (second compound 3.16 µM): 166 nM
IC50 (second compound 10 µM): 43 nM
viability, T/C [1]: 102%
viability, T/C [2]: 110%
viability, T/C [13]: 86.5%
viability, T/C [14]: 61%
viability, T/C [15]: 27.7%
viability, T/C [16]: 14.3%
viability, T/C [3]: 60%
viability, T/C [4]: 76.3%
viability, T/C [17]: 71.9%
viability, T/C [18]: 45.1%
viability, T/C [19]: 23.3%
viability, T/C [20]: 13.1%
viability, T/C [5]: 68.1%
viability, T/C [6]: 70.3%
viability, T/C [21]: 66.6%
viability, T/C [22]: 44.2%
viability, T/C [23]: 24.8%
viability, T/C [24]: 17.8%
viability, T/C [7]: 63.4%
viability, T/C [8]: 55.5%
viability, T/C [25]: 54.7%
viability, T/C [26]: 45.4%
viability, T/C [27]: 16%
viability, T/C [28]: 7.92%
viability, T/C [9]: 61.8%
viability, T/C [10]: 49.1%
viability, T/C [29]: 42.9%
viability, T/C [30]: 43.4%
viability, T/C [31]: 14.4%
viability, T/C [32]: 8.47%
viability, T/C [11]: 51.5%
viability, T/C [12]: 47.3%
viability, T/C [33]: 30.1%
viability, T/C [34]: 30.7%
viability, T/C [35]: 15.5%
viability, T/C [36]: 7.43%

O=C(c1cc(Cc2n[nH]c(=O)c3ccccc23)ccc1F)N1CCN(C(=O)C2CC2)CC1 + CN1CCN(c2cc(C(=O)Nc3cc4cc(-c5cnn(C)c5)ccc4cn3)ccn2)CC1
IC50 (second compound 0.0316 µM): > 10000 nM
IC50 (second compound 0.1 µM): > 10000 nM
IC50 (second compound 0.316 µM): < 31.6 nM
IC50 (second compound 1 µM): < 31.6 nM
IC50 (second compound 3.16 µM): < 31.6 nM
IC50 (second compound 10 µM): < 31.6 nM
viability, T/C [1]: 104%
viability, T/C [2]: 110%
viability, T/C [13]: 89.1%
viability, T/C [14]: 76.5%
viability, T/C [15]: 75.3%
viability, T/C [16]: 64.6%
viability, T/C [3]: 87.9%
viability, T/C [4]: 74.5%
viability, T/C [17]: 70.3%
viability, T/C [18]: 74.4%
viability, T/C [19]: 76.4%
viability, T/C [20]: 55.7%
viability, T/C [5]: 19.1%
viability, T/C [6]: 19.4%
viability, T/C [21]: 20.1%
viability, T/C [22]: 18%
viability, T/C [23]: 17.7%
viability, T/C [24]: 21.2%
viability, T/C [7]: 0.14%
viability, T/C [8]: 1.63%
viability, T/C [25]: 0.21%
viability, T/C [26]: 0.5%
viability, T/C [27]: 0.68%
viability, T/C [28]: 1.61%
viability, T/C [9]: 0.08%
viability, T/C [10]: 1.74%
viability, T/C [29]: 1.83%
viability, T/C [30]: 0.06%
viability, T/C [31]: 0.24%
viability, T/C [32]: 0.71%
viability, T/C [11]: 0.1%
viability, T/C [12]: 2.76%
viability, T/C [33]: 1.36%
viability, T/C [34]: 2.17%
viability, T/C [35]: 1.6%
viability, T/C [36]: 0.56%

Reference: PubChem BioAssay AID2060627 (Molecular Pharmacology Branch, DTP, NCI, 2025)
